For one data set, the target named is T1, CYP3A4 (Homo sapiens, UniProt P08684).
T1 construct: tissue BD-Gentest 452117; host or cells: human liver microsomes
Kind of data set: CYP inhibition assay in human liver microsome, CYP3A4. In kind it is in vitro ADME. As to conditions: human, liver microsomes, probe midazolam, HLM, midazolam substrate, read-out: CYP inhibition % @10 uM (3A4). As to the method: This is a high throughput screening assay used for assessment of reversible inhibition of CYP2C9, CYP2D6, and CYP3A4 activity of test compounds in human liver microsome (HLM) in early discovery stage.
10 mM DMSO stock solutions of test compounds were diluted in DMSO to generate 2 mM intermediate stock solution. 250 nL of intermediate stock solution were transferred in duplicate into 3 separate 384 well microtitre plates (assay-ready plates). A mixture of HLM and each substrate was made up. 45 μL of HLM substrate mix was then transferred to each well of an assay ready plate and mixed. The negative (solvent) and positive controls (standard inhibitor for each CYP) were included in each assay ready plate. The assay ready plate was warmed to 37° C. in an incubator over 10 minutes. 5 μL pre-warmed NADPH regenerating system was added to each incubation well to start the reaction. Final incubation volume was 50 μL. The assay plate then was placed back in the 37° C. incubator. After 5 minutes incubation (10 minutes for CYP2D6), incubates were quenched by addition of 50 μL quench reagent containing internal standards (400 ng/mL 13C6-4′-OH-Diclofenac, 20 ng/mL D3-Dextrorphan and 20 ng/mL D4-1′OH-Midazolam in acetonitrile). The supernatants were collected for RapidFire/MS/MS analysis.
RapidFire online solid phase extraction/sample injection system (Agilent) coupled with API4000 triple quadrupole mass spectrometer (AB Sciex) were used for sample analysis. The mobile phase composed of acetonitrile and water supplemented with 0.1% formic acid. A C4 solid phase extraction cartridge is used for sample separation. MS detection is achieved in positive ion MRM mode.
Peak areas for substrate, metabolite and internal standard are determined using the
RapidFire integrator software (version 3.6.12009.12296). Peak area ratios (PAR) of metabolite and internal standard (stable-labelled metabolite) are then calculated. The measurement window for each experiment is then defined:
PAR (0% activity)=average PAR for all incubations containing concentrated inhibitor;
Par (100% activity)=average PAR for all incubations containing no inhibitor (DMSO controls);
% Activity (test inhibitor) =[PAR(test inhibitor)-PAR(0% activity)][PAR(100% activity)-PAR(0% activity)];
% Inhibition (test inhibitor)=100-% Activity (test inhibitor).
Percentage inhibition data are then reported, in duplicate, for the 3 CYP enzymes.
For orientation: Liver microsomes are a subcellular fraction often used to study metabolism.

Another data set has as its target T2, human TLR7 (Homo sapiens, UniProt Q9NYK1).
T2 construct: host or cells: HEK293 (HEK-Blue hTLR7)
T2 sequence (Q9NYK1 27-1049): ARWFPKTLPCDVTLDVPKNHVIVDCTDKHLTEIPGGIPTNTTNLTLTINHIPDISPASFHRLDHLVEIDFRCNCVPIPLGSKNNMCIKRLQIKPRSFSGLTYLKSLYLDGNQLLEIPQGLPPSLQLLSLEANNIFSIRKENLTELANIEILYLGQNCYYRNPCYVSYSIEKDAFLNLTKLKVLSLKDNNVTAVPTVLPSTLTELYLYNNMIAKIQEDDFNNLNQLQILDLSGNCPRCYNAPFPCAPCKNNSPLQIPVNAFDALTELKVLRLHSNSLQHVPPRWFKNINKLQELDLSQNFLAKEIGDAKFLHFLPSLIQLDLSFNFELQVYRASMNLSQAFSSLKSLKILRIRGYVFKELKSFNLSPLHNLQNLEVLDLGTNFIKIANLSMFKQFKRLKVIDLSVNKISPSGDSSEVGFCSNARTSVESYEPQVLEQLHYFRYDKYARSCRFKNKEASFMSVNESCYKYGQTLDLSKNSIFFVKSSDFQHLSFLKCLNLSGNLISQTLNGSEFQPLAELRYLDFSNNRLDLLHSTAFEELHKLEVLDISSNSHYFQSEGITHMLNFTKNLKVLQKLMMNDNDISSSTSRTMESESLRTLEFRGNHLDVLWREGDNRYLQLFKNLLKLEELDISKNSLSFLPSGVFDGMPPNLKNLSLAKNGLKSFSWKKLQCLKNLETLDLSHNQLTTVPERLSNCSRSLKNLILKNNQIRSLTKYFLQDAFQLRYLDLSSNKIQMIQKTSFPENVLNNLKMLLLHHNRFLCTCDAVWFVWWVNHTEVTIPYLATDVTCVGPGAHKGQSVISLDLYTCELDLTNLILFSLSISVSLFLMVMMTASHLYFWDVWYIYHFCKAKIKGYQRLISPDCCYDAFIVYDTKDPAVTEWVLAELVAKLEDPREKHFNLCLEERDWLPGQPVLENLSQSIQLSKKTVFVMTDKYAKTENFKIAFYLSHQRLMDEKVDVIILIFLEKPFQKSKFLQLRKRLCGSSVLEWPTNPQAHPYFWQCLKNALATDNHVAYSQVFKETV
Kind of data set: HEK293-Blue-hTLR-7 cells assay (SEAP reporter, R848 stimulation). The format is cell-based. The settings on record: HEK293-Blue-hTLR7 cells, R848, 20 hrs. As to the method:
The following tests were carried out in order to determine the activity of the compounds of formula (I) in HEK293-Blue-hTLR-7/8/9 cells assay.
HEK293-Blue-hTLR-7 Cells Assay:
A stable HEK293-Blue-hTLR-7 cell line was purchased from InvivoGen (Cat. #: hkb-htlr7, San Diego, Calif. USA). These cells were originally designed for studying the stimulation of human TLR7 by monitoring the activation of NF-κB. A SEAP (secreted embryonic alkaline phosphatase) reporter gene was placed under the control of the IFN-β minimal promoter fused to five NF-κB and AP-1-binding sites. The SEAP was induced by activating NF-κB and AP-1 via stimulating HEK-Blue hTLR7 cells with TLR7 ligands. Therefore the reporter expression was declined by TLR7 antagonist under the stimulation of a ligand, such as R848 (Resiquimod), for incubation of 20 hrs. The cell culture supernatant SEAP reporter activity was determined using QUANTI-Blue™ kit (Cat. #: rep-qbl, Invivogen, San Diego, Calif., USA) at a wavelength of 640 nm, a detection medium that turns purple or blue in the presence of alkaline phosphatase.
HEK293-Blue-hTLR7 cells were incubated at a density of 250,000˜450,000 cells/mL in a volume of 170 μL in a 96-well plate in Dulbecco's Modified Eagle's medium (DMEM) containing 4.5 g/L glucose, 50 U/mL penicillin, […], […], 2 mM L-glutamine, 10% (v/v) heat-inactivated fetal bovine serum with addition of 20 μL A test compound in a serial dilution in the presence of final DMSO at 1% and 10 μL of 20 uM R848 in above DMEM, perform incubation under 37° C. in a CO2 incubator for 20 hrs. Then 20 μL of the supernatant from each well was incubated with 180 μQuanti-blue substrate solution at 37° C. for 2 hrs and the absorbance was read at 620˜655 nm using a spectrophotometer. The signalling pathway that TLR7 activation leads to downstream NF-κB activation has been widely accepted, and therefore similar reporter assay was modified for evaluating TLR7 antagonist.

pIC50: −log10 of the molar value.

T1 sequence (P08684 whole entry): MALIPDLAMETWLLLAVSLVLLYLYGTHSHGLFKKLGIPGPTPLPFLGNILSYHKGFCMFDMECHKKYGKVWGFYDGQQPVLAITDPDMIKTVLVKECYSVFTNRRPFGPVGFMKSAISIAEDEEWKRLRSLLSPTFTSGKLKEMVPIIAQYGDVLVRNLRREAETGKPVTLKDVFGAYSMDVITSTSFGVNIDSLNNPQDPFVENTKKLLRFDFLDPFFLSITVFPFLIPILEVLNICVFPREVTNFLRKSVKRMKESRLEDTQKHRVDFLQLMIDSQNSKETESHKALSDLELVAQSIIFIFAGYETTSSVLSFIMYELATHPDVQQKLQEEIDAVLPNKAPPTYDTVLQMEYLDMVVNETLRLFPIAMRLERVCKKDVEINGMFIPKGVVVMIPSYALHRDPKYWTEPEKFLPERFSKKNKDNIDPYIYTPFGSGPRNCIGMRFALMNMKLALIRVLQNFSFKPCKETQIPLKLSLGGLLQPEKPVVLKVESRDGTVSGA

Regarding `C[C@@H]1CN(c2ccc(C(F)(F)F)c3ncccc23)C[C@H](C(=O)NC2CN(C)CC23CC3)O1` (stereo partly drawn) [Example 9, (2R,6R)-6-methyl-N-(5-methyl-5-azaspiro[2.4]heptan-7-yl)-4-[8-(trifluoromethyl)-5-quinolyl]morpholine-2-carboxamide], the inhibition at 5 min, 10 µM at CYP3A4 was -18%. Also, the pIC50 against human TLR7 was 7.85.

For `C[C@@H]1CN(c2ccc(C(F)(F)F)c3ncccc23)C[C@H](C(=O)NCC2COCCN2C)O1` (stereo partly drawn) [Example 11, (2R,6R)-6-methyl-N-[(4-methylmorpholin-3-yl)methyl]-4-[8-(trifluoromethyl)-5-quinolyl]morpholine-2-carboxamide], the inhibition at 5 min, 10 µM on CYP3A4 was -28%. Besides, the pIC50 against human TLR7 is 7.29.

Consider `C[C@@H]1CN(c2ccc(C(F)(F)F)c3ncccc23)C[C@H](C(=O)NC2CCN(C)CC2)O1` [Example 5, (2R,6R)-6-methyl-N-(1-methyl-4-piperidyl)-4-[8-(trifluoromethyl)-5-quinolyl]morpholine-2-carboxamide], for which the inhibition at 5 min, 10 µM on CYP3A4 is -13%. This compound gave a pIC50 at human TLR7 of 8.15.

With `C[C@@H]1CN(c2ccc(C(F)(F)F)c3ncccc23)C[C@H](C(=O)NC2CC3CCCC(C2)N3)O1` (single isomer, unassigned) [Example 34B], the inhibition at 5 min, 10 µM on CYP3A4 is -28%. The pIC50 on human TLR7 is 8.15.

With `C[C@@H]1CN(c2ccc(C(F)(F)F)c3ncccc23)C[C@H](C(=O)NCC2CCCCN2C)O1` (stereo partly drawn) [Example 4, (2R,6R)-6-methyl-N-[(1-methyl-2-piperidyl)methyl]-4-[8-(trifluoromethyl)-5-quinolyl]morpholine-2-carboxamide], the inhibition at 5 min, 10 µM on CYP3A4 was -14%. The pIC50 at human TLR7 is 8.22.

Consider `C[C@@H]1CN(c2ccc(C(F)(F)F)c3ncccc23)C[C@H](C(=O)NC[C@@H]2C[C@@H](F)CN2)O1` [Example 27, (2R,6R)-N-[[(2S,4R)-4-fluoropyrrolidin-2-yl]methyl]-6-methyl-4-[8-(trifluoromethyl)-5-quinolyl]morpholine-2-carboxamide], for which the inhibition at 5 min, 10 µM at CYP3A4 was -2%. The same compound showed a pIC50 on human TLR7 of 7.22.

On to `C[C@@H]1CN(c2ccc(C(F)(F)F)c3ncccc23)C[C@H](C(=O)N2CCC3(CCNCC3)CC2)O1` [Example 32, 3,9-diazaspiro[5.5]undecan-3-yl-[(2R,6R)-6-methyl-4-[8-(trifluoromethyl)-5-quinolyl]morpholin-2-yl]methanone], for which the inhibition at 5 min, 10 µM on CYP3A4 is -2%. Moreover, on human TLR7, the pIC50 was 7.11.

For the compound `C[C@@H]1CN(c2ccc(C(F)(F)F)c3ncccc23)C[C@H](C(=O)NC2CNCCOC2)O1` (stereo partly drawn) [Example 14, (2R,6R)-6-methyl-N-(1,4-oxazepan-6-yl)-4-[8-(trifluoromethyl)-5-quinolyl]morpholine-2-carboxamide], the inhibition at 5 min, 10 µM on CYP3A4 is -24%. In addition, at human TLR7, the pIC50 is 7.43.

As for `C[C@@H]1CN(c2ccc(C(F)(F)F)c3ncccc23)C[C@H](C(=O)NCC(C)(C)N)O1` [Example 6, (2R,6R)-N-(2-amino-2-methyl-propyl)-6-methyl-4-[8-(trifluoromethyl)-5-quinolyl]morpholine-2-carboxamide], the inhibition at 5 min, 10 µM on CYP3A4 was -10%. Also, the pIC50 at human TLR7 was 7.51.

For `C[C@@H]1CN(c2ccc(C(F)(F)F)c3ncccc23)C[C@H](C(=O)NC[C@@H]2CC(F)(F)CN2)O1` [Example 30], the inhibition at 5 min, 10 µM on CYP3A4 was 20%. The compound further showed a pIC50 on human TLR7 of 6.43.

As to `C[C@@H]1CN(c2ccc(I)c3ncccc23)C[C@H](C(=O)NC2CCN(C)CC2)O1` [Example 38, (2R,6R)-4-(8-iodo-5-quinolyl)-6-methyl-N-(1-methyl-4-piperidyl)morpholine-2-carboxamide], the inhibition at 5 min, 10 µM on CYP3A4 was -2%. Further, the pIC50 at human TLR7 was 8.52.

On to `C[C@@H]1CN(c2ccc(C(F)(F)F)c3ncccc23)C[C@H](C(=O)NC2CNCC(F)(F)C2)O1` (stereo partly drawn) [Example 28, (2R,6R)-N-(5,5-difluoro-3-piperidyl)-6-methyl-4-[8-(trifluoromethyl)-5-quinolyl]morpholine-2-carboxamide], for which, on CYP3A4, the inhibition at 5 min, 10 µM is -30%. For the same compound, the pIC50 on human TLR7 is 6.70.

By inhibition is commonly meant the change of the read-out against control, counted positive when it falls. A word on the pIC50: it is the negative decadic logarithm of the IC50, by convention in mol/L. Low values mean a large IC50, high ones a small IC50.

These data come from patent US20220363665A1, “QUINOLINE COMPOUNDS FOR THE TREATMENT OF AUTOIMMUNE DISEASE” (Hoffmann-La Roche Inc., priority 2019, published 2022).
